Data reported in US10336689B1, “Gossypol eflornithine Schiff base compound with antitumor activities and a method of preparing the same” (SHAANXI UNIVERSITY OF SCIENCE AND TECHNOLOGY, priority 2019, dated 2019).
Read-outs that look alike come from different tables or passages of the source.

What was measured:
Assay type in all cases: cell-based
[1] = system: human hepatoma cells (HepG2); assay: MTT tumor cell proliferation inhibition test, HepG2; settings: read-out: Half Inhibitory Concentration IC50, HepG2
Method: (§1) The gossypol eflornithine Schiff base compound was subjected to tumor cell proliferation inhibition test, and conventional MTT method was used.
(§2) Cell lines: human hepatoma cells (HepG2), human lung cancer cells (A-549), human gastric cancer cells (SGC-7901). The culture medium was DMEM+15% NBS+double antibody.
(§3) Sample solution preparation: after dissolving with DMSO (Merck), PBS (−) was added to obtain 100 μmol/L solution or homogeneous suspension. The solution was diluted with PBS (−) in DMSO to a final concentration of 0.1, 1, 10, 20, 40, 60, 80, 100 μmol/L.
(§4) Gossypol and eflornithine used as control solution, prepared under the same condition.
(§5) Cell culture: adherent growth Tumor cells were cultured in 1640 medium containing 10% inactivated neonatal bovine serum and penicillin, streptomycin (1 million U/L), placed in carbon dioxide incubator at 37° C., 5% CO2, and saturated humidity. Cells were treated serially passaged 2-3 times. The first culture was washed with PBS 2 times, and digested with trypsin. Fresh culture medium was added evenly, cells were adjusted to an appropriate concentration and transferred into a new culture flask. […]
(§6) Experimental Principle: Living cells mitochondria in the dehydrogenase can reduce yellow MTT to water-insoluble blue-violet product MT (MTT formazan), deposited in the cells. […] DMSO can dissolve blue violet crystals, and the color depth is proportional to the amount contained, so the absorbance measured by the microplate reader can reflect the cell viability.
(§7) Methods: The exponential phase cells were digested and counted and seeded in 96-well plates at a density of 2×10^4/mL at 100 μl per well. […] After 48 hours, the supernatant was discarded, and 100 μl of MTT ((2-(4,5-dimethyl-2-thiazolyl)-3,5-diphenyl-2H-[…]) (1 mg/mL) was added to each well. After another 4 hours, the supernatant was discarded, and 100 μl of DMSO was added to each well. After mixing, the absorbance was measured at 570 nm using a microplate reader. An IC50 calculation software was used to determine the half inhibitory concentration (IC50).

[2] = system: human lung cancer cells (A-549); assay: MTT tumor cell proliferation inhibition test, A-549; settings: read-out: Half Inhibitory Concentration IC50, A549
Method: as §1, §2, §3, §4, §5, §6, §7

[3] = system: human gastric cancer cells (SGC-7901); assay: MTT tumor cell proliferation inhibition test, SGC-7901; settings: for IC50: Homo sapiens, read-out: Half Inhibitory Concentration IC50, SGC-7901
Method: as §1, §2, §3, §4
Cell culture: adherent growth Tumor cells were cultured in 1640 medium containing 10% inactivated neonatal bovine serum and penicillin, streptomycin (1 million U/L), placed in carbon dioxide incubator at 37° C., 5% CO2, and saturated humidity. Cells were treated serially passaged 2-3 times. The first culture was washed with PBS 2 times, and digested with trypsin. Fresh culture medium was added evenly, cells were adjusted to an appropriate concentration and transferred into a new culture flask. Cell in an exponential phase were chosen for the tests.
MTT Assay for Cell Viability and IC50 Determination:
Experimental Principle: Living cells mitochondria in the dehydrogenase can reduce yellow MTT to water-insoluble blue-violet product MT (MTT formazan), deposited in the cells. The amount of production is proportional to the number of living cells. […] DMSO can dissolve blue violet crystals, and the color depth is proportional to the amount contained, so the absorbance measured by the microplate reader can reflect the cell viability.
Methods: The exponential phase cells were digested and counted and seeded in 96-well plates at a density of 2×10^4/mL at 100 μl per well. After 24 hours of incubation, the cells to be tested were treated with 0.1, 1, 10, 20, 40, 60, 80, 100 μmol/L of the compounds. Each experimental group had 5 wells in each concentration, and the culture medium containing 0.4% DMSO was used as control. After 48 hours, the supernatant was discarded, and 100 μl of MTT ((2-(4,5-dimethyl-2-thiazolyl)-3,5-diphenyl-2H-[…]) (1 mg/mL) was added to each well. After another 4 hours, the supernatant was discarded, and 100 μl of DMSO was added to each well. After mixing, the absorbance was measured at 570 nm using a microplate reader. An IC50 calculation software was used to determine the half inhibitory concentration (IC50).

[4] = HepG2 cells, MTT, 48 hours treatment
[5] = A549 cells, MTT, 48 hours treatment
[6] = SGC-7901 cells, MTT, 48 hours treatment

IC50 [1, 4] [µM]	IC50 [2, 5] [µM]	IC50 [3, 6] [µM]	Compound	IC50 ([1]; HepG2, 48 h) [µM]	IC50 ([2]; A549, 48 h) [µM]	IC50 ([3]; SGC-7901, 48 h) [µM]	antitumor activity against SGC-7901 cell lines compared with gossypol ([3]; SGC-7901 cells, MTT, comparison with gossypol)
> 100	> 100	> 100	NCCCC(N)(C(=O)O)C(F)F (stereo not shown) [Eflornithine]	–	–	–	–
–	–	–	Cc1cc2c(C(C)C)c(O)c(O)c(C=O)c2c(O)c1-c1c(C)cc2c(C(C)C)c(O)c(O)c(C=O)c2c1O [Gossypol]	9.55 ± 0.41	13 ± 0.32	19.8 ± 0.66	–
20.1 ± 0.57	11.6 ± 0.2	11.1 ± 0.34	Cc1cc2c(C(C)C)c(O)c(O)c(/C=N\CCCC(N)(C(=O)O)C(F)F)c2c(O)c1-c1c(C)cc2c(C(C)C)c(O)c(O)c(/C=N\CCCC(N)(C(=O)O)C(F)F)c2c1O (stereo not shown) [gossypol eflornithine Schiff base compound]	–	–	–	better antitumor activity against SGC-7901 cell lines than gossypol
